Measurements from the OligoGym collection.
After the bases stand the sugars from the 5' end (letter, count) and the backbone: PS all phosphorothioate, else s phosphorothioate and o phosphodiester by linkage. Methylation of C is not given here. e = 2'-O-(2-methoxyethyl) (MOE); k = constrained ethyl (cEt); d = 2'-deoxy (DNA); m = 2'-O-methyl

Molecular target: HSD17B13
Conditions: ASO, HepaRG

Row | Sequence | target mRNA inhibition (1 µM) | other results
1 | GTTTTATAACTGAGCT (sugars k3 d10 k3, PS) | 84% | target mRNA inhibition (0.02 µM): 16%; target mRNA inhibition (0.078 µM): 29%; target mRNA inhibition (0.313 µM): 53%; target mRNA inhibition (1.25 µM): 84%; target mRNA inhibition (5 µM): 85%
2 | AACTAACCTGACACAT (sugars k3 d10 k3, PS) | 20% | 
3 | ACAATATGGGATGAGG (sugars kkdddddddddkekek, PS) | 51% | 
4 | TCCTACAGTGCTTAGT (sugars k3 d10 k3, PS) | 44% | 
5 | TTCTAAATTACTCCGT (sugars k3 d10 k3, PS) | 53% | 
6 | CATCCTTGGTGCTGAG (sugars k3 d10 k3, PS) | 12% | 
7 | AGGAAGTGATCCATAT (sugars k3 d10 k3, PS) | 60% | 
8 | AGTATTTGGGTGTTCT (sugars k3 d10 k3, PS) | 17% | 
9 | GGCAAATACAGCAGTA (sugars k3 d10 k3, PS) | 64% | 
10 | GTTCTTGTTGATATTC (sugars kkdddddddddkekek, PS) | 66% | 
11 | TGGAAGATTAATCATA (sugars k3 d10 k3, PS) | 12% | 
12 | CCCCGAATTATTTCTT (sugars k3 d10 k3, PS) | 35% | 
13 | TTGTTGATATTCTGTG (sugars k3 d10 k3, PS) | 52% | 
14 | GTTGAGTAGTGTAAGC (sugars k3 d10 k3, PS) | 53% | 
15 | ACTAATATTGAGGCAC (sugars k3 d10 k3, PS) | 19% | 
16 | AGTGGGAGTCGGATTA (sugars k3 d10 k3, PS) | 50% | 
17 | ACAATTTTTCCAATCC (sugars k3 d10 k3, PS) | 86% | target mRNA inhibition (0.02 µM): 9%; target mRNA inhibition (0.078 µM): 37%; target mRNA inhibition (0.313 µM): 62%; target mRNA inhibition (1.25 µM): 76%; target mRNA inhibition (5 µM): 93%
18 | AGTTTTGGGACCAATA (sugars k3 d10 k3, PS) | 31% | 
19 | AAAAACTTCACCAACG (sugars k3 d10 k3, PS) | 8% | 
20 | AAATCATGGTGTGGAG (sugars k3 d10 k3, PS) | 1% | 
21 | CATTGATTCGAAACTA (sugars k3 d10 k3, PS) | 40% | 
22 | GACAACCCTTAACAAA (sugars k3 d10 k3, PS) | 24% | 
23 | GGGAGGAGGTACTGTC (sugars k3 d10 k3, PS) | 35% | 
24 | CATATACAGACTAAGG (sugars k3 d10 k3, PS) | 57% | 

Row | Sequence | target mRNA inhibition (1 µM) | other results
25 | CCTAAGATAAAATTGC (sugars k3 d10 k3, PS) | 18% | 
26 | ATTAAGACAGTTGAGT (sugars k3 d10 k3, PS) | 34% | 
27 | GCTAATGTATGAGGTC (sugars k3 d10 k3, PS) | 78% | target mRNA inhibition (0.02 µM): 0%; target mRNA inhibition (0.078 µM): 0%; target mRNA inhibition (0.313 µM): 34%; target mRNA inhibition (1.25 µM): 64%; target mRNA inhibition (5 µM): 82%
28 | AAAGACTTTGAGACTC (sugars k3 d1 m1 d8 k3, PS) | 76% | target mRNA inhibition (0.02 µM): 14%; target mRNA inhibition (0.078 µM): 28%; target mRNA inhibition (0.313 µM): 42%; target mRNA inhibition (1.25 µM): 66%; target mRNA inhibition (5 µM): 77%
29 | GTATCTTATAAGACTA (sugars kkdddddddddkekek, PS) | 61% | 
30 | GAACCTATGTGTGCAC (sugars k3 d10 k3, PS) | 53% | 
31 | TTGCATAAGAGCCAAA (sugars k3 d10 k3, PS) | 46% | 
32 | CACAATCTAGCAACCT (sugars k3 d10 k3, PS) | 40% | 
33 | CAGGAATGCATAAGAG (sugars k3 d10 k3, PS) | 33% | 
34 | GCAAAAGGAGCCAGTT (sugars k3 d10 k3, PS) | 57% | 
35 | GCATCAAGACATTCTA (sugars k3 d1 m1 d8 k3, PS) | 51% | 
36 | GTTACATCACCCACTT (sugars k3 d10 k3, PS) | 41% | 
37 | GCCTAAAATTGTCTAA (sugars k3 d10 k3, PS) | 32% | 
38 | GATATTCTGTGGCATG (sugars k3 d10 k3, PS) | 46% | 
39 | TACACTGACAACCCTT (sugars k3 d10 k3, PS) | 56% | 
40 | GAATCCAGATCTGCCC (sugars k3 d10 k3, PS) | 29% | 
41 | CTGGATATACTGTCCC (sugars k3 d10 k3, PS) | 20% | 
42 | CACAAGTAAGGTAAAG (sugars k3 d1 m1 d8 k3, PS) | 43% | 
43 | TACATATCTTACTCTG (sugars k3 d10 k3, PS) | 40% | 
44 | GTTAAAACTTCATTCC (sugars k3 d10 k3, PS) | 5% | 
45 | ACTTGAACAGTCTTAA (sugars k3 d9 k3 e1, PS) | 60% | 
46 | CGATCCTATATACATC (sugars kkdddddddddkekek, PS) | 29% | 
47 | ATAAGAGCCAAACTGC (sugars k3 d10 k3, PS) | 49% | 
48 | GTTTTTCTCTTGACAA (sugars k3 d10 k3, PS) | 59% | 

Row | Sequence | target mRNA inhibition (1 µM) | other results
49 | TACCACATACGCATGC (sugars k3 d10 k3, PS) | 33% | 
50 | GGCAAGACAGACTGTT (sugars k3 d10 k3, PS) | 75% | 
51 | GTTAGTATAGTTATCT (sugars k3 d9 k3 e1, PS) | 71% | 
52 | TTCTATTGTATGAGGT (sugars k3 d10 k3, PS) | 0% | 
53 | ATAACATGGCTGGCAT (sugars k3 d10 k3, PS) | 14% | 
54 | CCAATACAGGCCATAA (sugars k3 d10 k3, PS) | 38% | 
55 | GTCCTTTGTATTTCGC (sugars k3 d10 k3, PS) | 45% | 
56 | AGTTTAGATTGCATAA (sugars k3 d10 k3, PS) | 50% | 
57 | CTTATGATAATTTGGT (sugars k3 d10 k3, PS) | 2% | 
58 | GAAATTGATACACCAA (sugars kkdddddddddkekek, PS) | 68% | 
59 | TTTGTTAGAGTGCTTA (sugars k3 d10 k3, PS) | 80% | target mRNA inhibition (0.02 µM): 12%; target mRNA inhibition (0.078 µM): 30%; target mRNA inhibition (0.313 µM): 56%; target mRNA inhibition (1.25 µM): 86%; target mRNA inhibition (5 µM): 89%
60 | CCATCTATCAGACTTC (sugars k3 d10 k3, PS) | 78% | target mRNA inhibition (0.02 µM): 0%; target mRNA inhibition (0.078 µM): 0%; target mRNA inhibition (0.313 µM): 20%; target mRNA inhibition (1.25 µM): 63%; target mRNA inhibition (5 µM): 78%
61 | AATTCTAAACTAGTGG (sugars k3 d10 k3, PS) | 31% | 
62 | CAATTGCTCTATAGAT (sugars k3 d10 k3, PS) | 15% | 
63 | AGTCCTTGTGTAGTCC (sugars k3 d10 k3, PS) | 64% | 
64 | CACACCGCGCTTATTA (sugars k3 d10 k3, PS) | 11% | 
65 | GCAAAGTTTGGGCAGA (sugars k3 d10 k3, PS) | 50% | 
66 | TAGAACACTTGCCTCA (sugars k3 d10 k3, PS) | 31% | 
67 | TGACAATGGTTGCCAC (sugars kkdddddddddkekek, PS) | 38% | 
68 | ATTGCATAAGAGCCAA (sugars k3 d10 k3, PS) | 67% | 
69 | GACTTTTGTTTGTAGC (sugars k3 d10 k3, PS) | 74% | 
70 | AGAGGCTAGGGAAATC (sugars k3 d9 k3 e1, PS) | 68% | 
71 | GAAAAGCCTGACTCAC (sugars k3 d10 k3, PS) | 48% | 
72 | CCAGTACAGTTCCTTT (sugars k3 d9 k3 e1, PS) | 76% | target mRNA inhibition (0.02 µM): 10%; target mRNA inhibition (0.078 µM): 20%; target mRNA inhibition (0.313 µM): 43%; target mRNA inhibition (1.25 µM): 73%; target mRNA inhibition (5 µM): 83%

Row | Sequence | target mRNA inhibition (1 µM) | other results
73 | TAACTACAAGAGGTTA (sugars k3 d10 k3, PS) | 22% | 
74 | ACTTGATCTCTTAGCT (sugars k3 d10 k3, PS) | 59% | 
75 | GACTTTGAGACTCTTG (sugars k3 d10 k3, PS) | 65% | 
76 | GTGTAAATAAGTTCTC (sugars k3 d10 k3, PS) | 61% | 
77 | TGTTAAGCAGATGGCT (sugars k3 d10 k3, PS) | 39% | 
78 | ACACCGCGCTTATTAA (sugars k3 d10 k3, PS) | 7% | 
79 | CAGATTGGAATGCTAC (sugars kkdddddddddkekek, PS) | 57% | 
80 | TGAAGCCACTGTGACG (sugars k3 d10 k3, PS) | 49% | 
81 | AGCTGGTAAAGGTAAG (sugars k3 d10 k3, PS) | 55% | 
82 | AAATATGTCCAGGTTG (sugars kkdddddddddkekek, PS) | 61% | 
83 | TGGCTACAGATTGGAA (sugars k3 d10 k3, PS) | 55% | 
84 | CATAGGACATGGAGAC (sugars k3 d10 k3, PS) | 69% | target mRNA inhibition (0.02 µM): 0%; target mRNA inhibition (0.078 µM): 16%; target mRNA inhibition (0.313 µM): 37%; target mRNA inhibition (1.25 µM): 58%; target mRNA inhibition (5 µM): 83%
85 | GGATAGTCCATGCAAA (sugars k3 d10 k3, PS) | 64% | 
86 | TTGTTAGAGTGCTTAG (sugars k3 d10 k3, PS) | 76% | 
87 | GAGATAAAGCTGCCTG (sugars kkdddddddddkekek, PS) | 40% | 
88 | TAAACCCTGGAGCAGC (sugars k3 d10 k3, PS) | 66% | 
89 | AATATATACCTGTTGC (sugars k3 d10 k3, PS) | 38% | 
90 | GTCCAAAAGTGTCCTC (sugars k3 d10 k3, PS) | 35% | 
91 | GATATTGTTTAGCTGA (sugars k3 d10 k3, PS) | 59% | 
92 | ATAGAGTTGCACCGTT (sugars k3 d1 m1 d8 k3, PS) | 59% | 
93 | CTTACGACTTCATCTG (sugars k3 d10 k3, PS) | 38% | 
94 | AACCCAGTATTCACAA (sugars k3 d10 k3, PS) | 0% | 
95 | TAGTGAACATACATTG (sugars k3 d10 k3, PS) | 23% | 
